PubChem BioAssay (NCI)
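In this assay, cells in 96-well plates receive the compound at five concentrations for 48 hours. Endpoints are linearly interpolated between the surrounding concentrations. TGI marks complete inhibition of growth.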

Assays:
Experiment in all cases: NCI tumour cell line growth inhibition, 48 h
SK-MEL-5 melanoma = test system: SK-MEL-5 melanoma
DMS 114 small cell lung = test system: DMS 114 small cell lung
HOP-18 NSCLC = test system: HOP-18 NSCLC
IGROV1 ovarian = test system: IGROV1 ovarian
HOP-62 NSCLC = test system: HOP-62 NSCLC
DLD-1 colon = test system: DLD-1 colon
SK-OV-3 ovarian = test system: SK-OV-3 ovarian
RPMI-8226 leukemia = test system: RPMI-8226 leukemia
NCI-H226 lung = test system: NCI-H226 lung
SNB-78 CNS = test system: SNB-78 CNS
OVCAR-8 ovarian = test system: OVCAR-8 ovarian
UO-31 renal = test system: UO-31 renal
CAKI-1 renal = test system: CAKI-1 renal
SK-MEL-2 melanoma = test system: SK-MEL-2 melanoma
786-0 renal = test system: 786-0 renal
RXF 393 renal = test system: RXF 393 renal
MALME-3M melanoma = test system: MALME-3M melanoma
K-562 leukemia = test system: K-562 leukemia
HL-60(TB) leukemia = test system: HL-60(TB) leukemia
OVCAR-5 ovarian = test system: OVCAR-5 ovarian
LOX IMVI melanoma = test system: LOX IMVI melanoma
HOP-92 NSCLC = test system: HOP-92 NSCLC
SNB-19 CNS = test system: SNB-19 CNS
DMS 273 small cell lung = test system: DMS 273 small cell lung
SW-620 colon = test system: SW-620 colon
OVCAR-4 ovarian = test system: OVCAR-4 ovarian
SF-295 CNS = test system: SF-295 CNS
NCI-H460 lung = test system: NCI-H460 lung
XF 498 CNS = test system: XF 498 CNS
ACHN renal = test system: ACHN renal
LXFL 529 NSCLC = test system: LXFL 529 NSCLC
NCI-H23 lung = test system: NCI-H23 lung
KM20L2 colon = test system: KM20L2 colon
CCRF-CEM leukemia = test system: CCRF-CEM leukemia
EKVX NSCLC = test system: EKVX NSCLC
NCI-H522 lung = test system: NCI-H522 lung
U251 CNS = test system: U251 CNS
SF-268 CNS = test system: SF-268 CNS
OVCAR-3 ovarian = test system: OVCAR-3 ovarian
HCT-116 colon = test system: HCT-116 colon
SK-MEL-28 melanoma = test system: SK-MEL-28 melanoma
SR leukemia = test system: SR leukemia
UACC-62 melanoma = test system: UACC-62 melanoma
HCC-2998 colon = test system: HCC-2998 colon
UACC-257 melanoma = test system: UACC-257 melanoma
COLO 205 colon = test system: COLO 205 colon
A549 NSCLC = test system: A549 NSCLC
M14 melanoma = test system: M14 melanoma
A498 renal = test system: A498 renal
SNB-75 CNS = test system: SNB-75 CNS
HCT-15 colon = test system: HCT-15 colon
KM12 colon = test system: KM12 colon
M19-MEL melanoma = test system: M19-MEL melanoma
HT29 colon = test system: HT29 colon
SF-539 CNS = test system: SF-539 CNS
MOLT-4 leukemia = test system: MOLT-4 leukemia
SN12C renal = test system: SN12C renal
TK-10 renal = test system: TK-10 renal
RXF-631 renal = test system: RXF-631 renal

## [N-]=[N+]=C1C(=O)C2CC3CC(C2)CC1C3
SK-MEL-5 melanoma
  TGI: > 100 µM
DMS 114 small cell lung
  TGI: > 100 µM
HOP-18 NSCLC
  TGI: > 100 µM
IGROV1 ovarian
  TGI: > 100 µM
HOP-62 NSCLC
  TGI: > 100 µM
DLD-1 colon
  TGI: > 100 µM
SK-OV-3 ovarian
  TGI: > 100 µM
RPMI-8226 leukemia
  TGI: > 100 µM
NCI-H226 lung
  TGI: > 100 µM
SNB-78 CNS
  TGI: > 100 µM
OVCAR-8 ovarian
  TGI: > 100 µM
UO-31 renal
  TGI: > 100 µM
CAKI-1 renal
  TGI: > 100 µM
SK-MEL-2 melanoma
  TGI: > 100 µM
786-0 renal
  TGI: > 100 µM
RXF 393 renal
  TGI: > 100 µM
MALME-3M melanoma
  TGI: > 100 µM
K-562 leukemia
  TGI: > 100 µM
HL-60(TB) leukemia
  TGI: > 100 µM
OVCAR-5 ovarian
  TGI: > 100 µM
LOX IMVI melanoma
  TGI: > 100 µM
HOP-92 NSCLC
  TGI: > 100 µM
SNB-19 CNS
  TGI: > 100 µM
DMS 273 small cell lung
  TGI: > 100 µM
SW-620 colon
  TGI: > 100 µM
OVCAR-4 ovarian
  TGI: > 100 µM
SF-295 CNS
  TGI: > 100 µM
NCI-H460 lung
  TGI: > 100 µM
XF 498 CNS
  TGI: > 100 µM
ACHN renal
  TGI: > 100 µM
LXFL 529 NSCLC
  TGI: > 100 µM
NCI-H23 lung
  TGI: > 100 µM
KM20L2 colon
  TGI: > 100 µM
CCRF-CEM leukemia
  TGI: > 100 µM
EKVX NSCLC
  TGI: > 100 µM
NCI-H522 lung
  TGI: > 100 µM
U251 CNS
  TGI: > 100 µM
SF-268 CNS
  TGI: > 100 µM
OVCAR-3 ovarian
  TGI: > 100 µM
HCT-116 colon
  TGI: > 100 µM
SK-MEL-28 melanoma
  TGI: > 100 µM
SR leukemia
  TGI: > 100 µM
UACC-62 melanoma
  TGI: > 100 µM
HCC-2998 colon
  TGI: > 100 µM
UACC-257 melanoma
  TGI: > 100 µM
COLO 205 colon
  TGI: > 100 µM
A549 NSCLC
  TGI: > 100 µM
M14 melanoma
  TGI: > 100 µM
A498 renal
  TGI: > 100 µM
SNB-75 CNS
  TGI: > 100 µM
HCT-15 colon
  TGI: > 100 µM
KM12 colon
  TGI: > 100 µM
M19-MEL melanoma
  TGI: > 100 µM
HT29 colon
  TGI: > 100 µM
SF-539 CNS
  TGI: > 100 µM
MOLT-4 leukemia
  TGI: > 100 µM
SN12C renal
  TGI: > 100 µM
TK-10 renal
  TGI: > 100 µM

## CC(C)c1c2[nH]c3ccccc3c2c(C(C)C)c2[nH]c3ccccc3c12
SK-MEL-5 melanoma
  TGI: > 100 µM
DMS 114 small cell lung
  TGI: > 100 µM
HOP-18 NSCLC
  TGI: > 100 µM
IGROV1 ovarian
  TGI: > 100 µM
HOP-62 NSCLC
  TGI: > 100 µM
DLD-1 colon
  TGI: > 100 µM
SK-OV-3 ovarian
  TGI: > 100 µM
RPMI-8226 leukemia
  TGI: > 100 µM
NCI-H226 lung
  TGI: > 82.8 µM
RXF-631 renal
  TGI: > 100 µM
SNB-78 CNS
  TGI: > 100 µM
OVCAR-8 ovarian
  TGI: > 100 µM
UO-31 renal
  TGI: > 100 µM
CAKI-1 renal
  TGI: > 100 µM
SK-MEL-2 melanoma
  TGI: > 100 µM
786-0 renal
  TGI: > 100 µM
RXF 393 renal
  TGI: > 100 µM
MALME-3M melanoma
  TGI: > 100 µM
K-562 leukemia
  TGI: > 100 µM
HL-60(TB) leukemia
  TGI: > 62.5 µM
OVCAR-5 ovarian
  TGI: > 100 µM
LOX IMVI melanoma
  TGI: > 100 µM
HOP-92 NSCLC
  TGI: > 100 µM
SNB-19 CNS
  TGI: > 100 µM
DMS 273 small cell lung
  TGI: > 100 µM
SW-620 colon
  TGI: > 100 µM
OVCAR-4 ovarian
  TGI: > 100 µM
SF-295 CNS
  TGI: > 100 µM
NCI-H460 lung
  TGI: > 100 µM
XF 498 CNS
  TGI: > 100 µM
ACHN renal
  TGI: > 100 µM
LXFL 529 NSCLC
  TGI: > 100 µM
NCI-H23 lung
  TGI: > 100 µM
KM20L2 colon
  TGI: > 100 µM
CCRF-CEM leukemia
  TGI: > 100 µM
EKVX NSCLC
  TGI: > 100 µM
NCI-H522 lung
  TGI: > 100 µM
U251 CNS
  TGI: > 100 µM
SF-268 CNS
  TGI: > 100 µM
OVCAR-3 ovarian
  TGI: > 100 µM
HCT-116 colon
  TGI: > 100 µM
SK-MEL-28 melanoma
  TGI: > 100 µM
SR leukemia
  TGI: > 100 µM
UACC-62 melanoma
  TGI: > 100 µM
HCC-2998 colon
  TGI: > 100 µM
UACC-257 melanoma
  TGI: > 100 µM
COLO 205 colon
  TGI: > 100 µM
A549 NSCLC
  TGI: > 100 µM
M14 melanoma
  TGI: > 100 µM
A498 renal
  TGI: > 100 µM
SNB-75 CNS
  TGI: > 100 µM
HCT-15 colon
  TGI: > 100 µM
KM12 colon
  TGI: > 100 µM
M19-MEL melanoma
  TGI: > 100 µM
HT29 colon
  TGI: > 100 µM
SF-539 CNS
  TGI: > 100 µM
MOLT-4 leukemia
  TGI: > 100 µM
SN12C renal
  TGI: > 100 µM
TK-10 renal
  TGI: > 100 µM
